Assay results reported in patent publication US20140187423A1, “Fungicidal substituted 1--1H-[1,2,4]triazole compounds” (BASF SE, priority 2011, published 2014).

Key:
[1] = system: Phakopsora pachyrhizi; experiment: Green house G1: protective control of soy bean rust on soy beans caused by Phakopsora pachyrhizi (Phakpa P2); type: in vivo; conditions: soy bean seedlings sprayed 2 days before inoculation, % diseased leaf area, untreated control 70
Method: The spray solutions were prepared in several steps:
The stock solution were prepared: a mixture of acetone and/or dimethylsulfoxide and the wetting agent/emulsifier Wettol, which is based on ethoxylated alkylphenoles, in a relation (volume) solvent-emulsifier of 99 to 1 was added to 25 mg of the compound to give a total of 5 ml. Water was then added to total volume of 100 ml. This stock solution was diluted with the described solvent-emulsifier-water mixture to the given concentration.
G1. Protective control of soy bean rust on soy beans caused by Phakopsora pachyrhizi (Phakpa P2)
Leaves of pot-grown soy bean seedlings were sprayed to run-off with an aqueous suspension, containing the concentration of active ingredient or their mixture as described below. The plants were allowed to air-dry. The trial plants were cultivated for 2 days in a greenhouse chamber at 23-27° C. and a relative humidity between 60 and 80%. Then the plants were inoculated with spores of Phakopsora pachyrhizi. To ensure the success the artificial inoculation, the plants were transferred to a humid chamber with a relative humidity of about 95% and 20 to 24° C. for 24 h. The trial plants were cultivated for fourteen days in a greenhouse chamber at 23-27° C. and a relative humidity between 60 and 80%. The extent of fungal attack on the leaves was visually assessed as % diseased leaf area.

[2] = system: Septoria tritici; experiment: Green house G2: preventative control of leaf blotch on wheat caused by Septoria tritici (Septtr P7); type: in vivo; conditions: wheat seedlings sprayed 7 days before inoculation, % diseased leaf area, untreated control 70
Method: The spray solutions were prepared in several steps: The stock solution were prepared: a mixture of acetone and/or dimethylsulfoxide and the wetting agent/emulsifier Wettol, which is based on ethoxylated alkylphenoles, in a relation (volume) solvent-emulsifier of 99 to 1 was added to 25 mg of the compound to give a total of 5 ml. Water was then added to total volume of 100 ml. This stock solution was diluted with the described solvent-emulsifier-water mixture to the given concentration. G2. Preventative control of leaf blotch on wheat caused by Septoria tritici (Septtr P7) Leaves of pot-grown wheat seedling were sprayed to run-off with an aqueous suspension of the active compound or their mixture, prepared as described. The plants were allowed to air-dry. Seven days later the plants were inoculated with an aqueous spore suspension of Septoria tritici. Then the trial plants were immediately transferred to a humid chamber at 18-22° C. and a relative humidity close to 100%. After 4 days the plants were transferred to a chamber with 18-22° C. and a relative humidity close to 70%. After 4 weeks the extent of fungal attack on the leaves was visually assessed as % diseased leaf area.

SMILES: CCOC(Cn1cncn1)c1ccc(Oc2ccc(Cl)cc2)cc1Cl (centres unmarked) [prior art compound]
- Disease (%) at 16 ppm Phakpa P2 [1]: 70%
- Disease (%) at 16 ppm Septtr P7 [2]: 50%
